According to patent publication US8466167B2, “Compounds and compositions as TLR activity modulators” (IRM LLC, priority 2008, dated 2013):

What follows are compounds tested against T1, human TLR7 (Homo sapiens, UniProt Q9NYK1) (assay: Reporter gene assay, HEK293-TLR7 (NF-kB-driven luciferase)). Conditions: HEK293-TLR7; read-out: EC50 in HEK293-TLR7 assay.
T1 construct: expressed in transfected cells; host or cells: HEK 293
T1 sequence (Q9NYK1 27-1049): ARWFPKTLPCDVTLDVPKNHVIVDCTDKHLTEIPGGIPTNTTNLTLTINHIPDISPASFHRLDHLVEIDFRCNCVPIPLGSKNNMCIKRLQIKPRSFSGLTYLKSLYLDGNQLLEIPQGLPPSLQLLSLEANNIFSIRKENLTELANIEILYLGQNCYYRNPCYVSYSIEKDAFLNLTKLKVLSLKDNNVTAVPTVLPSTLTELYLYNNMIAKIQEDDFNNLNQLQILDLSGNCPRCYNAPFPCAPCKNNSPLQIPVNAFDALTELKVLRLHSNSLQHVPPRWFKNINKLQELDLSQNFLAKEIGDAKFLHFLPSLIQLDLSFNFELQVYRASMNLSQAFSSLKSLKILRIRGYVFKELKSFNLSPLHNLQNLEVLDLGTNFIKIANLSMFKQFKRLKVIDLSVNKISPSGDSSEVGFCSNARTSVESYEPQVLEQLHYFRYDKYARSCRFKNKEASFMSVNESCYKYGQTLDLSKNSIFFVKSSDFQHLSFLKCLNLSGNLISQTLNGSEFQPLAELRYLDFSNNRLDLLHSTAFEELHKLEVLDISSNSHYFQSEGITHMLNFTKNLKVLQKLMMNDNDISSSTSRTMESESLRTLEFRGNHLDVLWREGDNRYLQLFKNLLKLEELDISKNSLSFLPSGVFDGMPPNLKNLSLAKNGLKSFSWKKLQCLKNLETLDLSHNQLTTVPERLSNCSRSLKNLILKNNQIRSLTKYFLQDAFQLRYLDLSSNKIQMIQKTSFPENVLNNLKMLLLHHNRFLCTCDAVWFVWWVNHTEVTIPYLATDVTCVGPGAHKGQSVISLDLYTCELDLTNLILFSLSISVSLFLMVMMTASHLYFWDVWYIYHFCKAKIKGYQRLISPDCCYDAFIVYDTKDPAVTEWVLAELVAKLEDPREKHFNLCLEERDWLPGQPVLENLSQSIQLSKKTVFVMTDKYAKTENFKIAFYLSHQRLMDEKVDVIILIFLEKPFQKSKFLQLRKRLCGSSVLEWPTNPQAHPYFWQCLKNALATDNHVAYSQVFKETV
Format: cell-based
Protocol: (§1) Human embryonic kidney 293 (HEK 293) cells are stably transfected with human TLR7 or TLR8 and an NF-kB-driven luciferase reporter vector (pNifty-Luciferase). As a control assay, normal Hek293 transfected with pNifty-Luc are used. Cells are cultured in DMEM supplemented with 2 mM L-glutamine, 10% heart inactivated FBS, 1% penicillin and streptomycin, 2 μg/ml puromycin (InvivoGen #ant-pr-5) and 5 μg/ml of blasticidin (Invitrogen #46-1120). Bright-Glo™ Luciferase assay buffer and substrate are supplied by Promega #E263B and #E264B (assay substrate and buffer respectively). 384 well clear-bottom plates are supplied by Greiner bio-one (#789163-G) and are GNF custom bar-coded plates.
(§2) Cells are plated at 25,000 cells/well in 384-well plates in a final volume of 50 μl of media. Cells are allowed to adhere to the plates after overnight (18 hours) culture at 37° C. 5% CO2. Serially diluted experimental and positive control compounds are then dispensed to each well and incubated for 7 hours at 37° C. 5% CO2. Cells stimulated with DMSO alone also serve as negative controls. After the incubation, 30 μl of the pre-mix assay buffer and substrate buffer are added to each well according to manufacturer's instructions. The luminescence signal is read on a CLIPR machine with an integration time of 20 seconds per plate.
(§3) Dose response curves are generated for each compound and EC50 values were determined as the concentration that gives 50% of the maximal signal.
For `Nc1nc2ccccc2c2ccc(=O)[nH]c12` [Example 15, 5-aminobenzo[f][1,7]naphthyridin-3(4H)-one], the EC50 was 24.1 µM.

Same assay, conditions: TLR-7 stimulation; read-out: Human TLR-7 EC50
In the case of `CCN1CCN(C(=O)c2ccc(CCc3cnc4c(N)nc5cc(C)ccc5c4c3)c(C)c2)CC1` [Example 126, (4-(2-(5-amino-8-methylbenzo[f][1,7]naphthyridin-2-yl)ethyl)-3-methylphenyl)(4-ethylpiperazin-1-yl)methanone], the EC50 is reported as 0.275 µM. For `COC(=O)CCc1ccc(CCc2cnc3c(N)nc4cc(C)ccc4c3c2)cc1` [Example 61, methyl 3-(4-(2-(5-amino-8-methylbenzo[f][1,7]naphthyridin-2-yl)ethyl)phenyl)propanoate], the EC50 was 0.582 µM. Compound `COc1ccc(CCc2cnc3c(N)nc4cc(C)ccc4c3c2)cc1OC` [Example 178, 2-(3,4-dimethoxyphenethyl)-8-methylbenzo[f][1,7]naphthyridin-5-amine] has an EC50 of 0.562 µM. For `Cc1ccc2c(c1)nc(N)c1ncc(CCc3ccc4[nH]ccc4c3)cc12` [Example 44, 2-(2-(1H-indol-5-yl)ethyl)-8-methylbenzo[f][1,7]naphthyridin-5-amine], the EC50 was 0.107 µM. Compound `Cc1ccc2c(c1)nc(N)c1ncc(CCc3ccc(Oc4ccccc4)cc3)cc12` [Example 46, 8-methyl-2-(4-phenoxyphenethyl)benzo[f][1,7]naphthyridin-5-amine] has an EC50 of 0.347 µM. For `Cc1ccc2c(c1)nc(N)c1ncc(CCc3ccc(CCC(C)(C)O)cc3)cc12` [Example 63, 4-(4-(2-(5-amino-8-methylbenzo[f][1,7]naphthyridin-2-yl)ethyl)phenyl)-2-methylbutan-2-ol], the EC50 was 0.024 µM. Compound `Cc1ccc2c(c1)nc(N)c1ncc(CCc3ccc(CCCO)cc3)cc12` [Example 62, 3-(4-(2-(5-amino-8-methylbenzo[f][1,7]naphthyridin-2-yl)ethyl)phenyl)propan-1-ol] has an EC50 of 0.035 µM. `Cc1ccc2c(c1)nc(N)c1ncc(CCc3ccc(OCCN4CCOCC4)cc3C)cc12` [Example 147, 8-methyl-2-(2-methyl-4-(2-morpholinoethoxy)phenethyl)benzo[f][1,7]naphthyridin-5-amine] gave an EC50 of 0.014 µM. Work on `CCCOC(=O)Oc1ccc(CCc2cnc3c(N)nc4cc(C)ccc4c3c2)cc1` [Example 138, 4-(2-(5-amino-8-methylbenzo[f][1,7]naphthyridin-2-yl)ethyl)phenyl propyl carbonate] yielded an EC50 of 0.213 µM.

The compounds below were run against T2, human TLR8 (Homo sapiens, UniProt Q9NR97) (assay: Reporter gene assay, HEK293-TLR8 (NF-kB-driven luciferase)). Conditions: TLR-8 stimulation; read-out: Human TLR-8 EC50.
T2 construct: expressed in transfected cells; host or cells: HEK 293
T2 sequence (Q9NR97 27-1041): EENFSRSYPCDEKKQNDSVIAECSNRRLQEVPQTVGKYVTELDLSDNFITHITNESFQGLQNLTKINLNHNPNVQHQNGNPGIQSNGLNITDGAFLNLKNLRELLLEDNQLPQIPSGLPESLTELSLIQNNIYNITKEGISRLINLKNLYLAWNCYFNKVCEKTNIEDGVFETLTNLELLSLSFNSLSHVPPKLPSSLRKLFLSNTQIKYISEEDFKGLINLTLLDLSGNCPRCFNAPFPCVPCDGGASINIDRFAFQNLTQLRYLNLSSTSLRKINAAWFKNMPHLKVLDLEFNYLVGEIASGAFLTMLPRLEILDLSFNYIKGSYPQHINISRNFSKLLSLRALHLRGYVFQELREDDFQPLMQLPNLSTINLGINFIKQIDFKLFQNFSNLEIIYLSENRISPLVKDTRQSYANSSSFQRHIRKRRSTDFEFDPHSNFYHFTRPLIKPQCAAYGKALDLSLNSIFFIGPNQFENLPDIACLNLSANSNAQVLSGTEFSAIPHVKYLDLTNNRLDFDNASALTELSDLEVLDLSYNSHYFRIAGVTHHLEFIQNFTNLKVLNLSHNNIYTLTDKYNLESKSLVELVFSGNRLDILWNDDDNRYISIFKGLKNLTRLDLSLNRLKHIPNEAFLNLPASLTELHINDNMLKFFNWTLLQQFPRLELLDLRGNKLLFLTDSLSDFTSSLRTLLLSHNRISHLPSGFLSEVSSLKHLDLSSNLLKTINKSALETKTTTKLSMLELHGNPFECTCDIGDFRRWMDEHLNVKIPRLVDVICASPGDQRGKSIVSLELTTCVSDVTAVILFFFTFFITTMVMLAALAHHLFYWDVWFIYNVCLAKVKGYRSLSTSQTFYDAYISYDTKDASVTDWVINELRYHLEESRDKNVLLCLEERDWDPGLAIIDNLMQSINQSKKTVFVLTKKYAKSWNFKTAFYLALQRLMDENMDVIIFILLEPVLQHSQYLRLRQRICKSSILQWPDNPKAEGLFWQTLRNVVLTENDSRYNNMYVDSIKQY
Format: cell-based
Protocol: as §1, §2, §3
Compound `Cc1ccc2c(c1)nc(N)c1ncc(CCc3ccc(C(C)NCCc4ccncc4)cc3)cc12` (centres unmarked) [Example 190, 8-methyl-2-(4-(1-(2-(pyridin-4-yl)ethylamino)ethyl)phenethyl)benzo[f][1,7]naphthyridin-5-amine] has an EC50 of 4.3 µM. `Cc1ccc2c(c1)nc(N)c1ncc(CCc3ccc(C(C)NC(C)CN(C)C)cc3)cc12` (centres unmarked) [Example 189, N^2-(1-(4-(2-(5-amino-8-methylbenzo[f][1,7]naphthyridin-2-yl)ethyl)phenyl)ethyl)-N^1,N^1-dimethylpropane-1,2-diamine] was tested, and the EC50 was 6.2 µM. Work on `Cc1ccc2c(c1)nc(N)c1ncc(CCc3ccc(C(C)(C)N)cc3)cc12` [Example 196, 2-(4-(2-aminopropan-2-yl)phenethyl)-8-methylbenzo[f][1,7]naphthyridin-5-amine] yielded an EC50 of 2.6 µM. With `Cc1ccc2c(c1)nc(N)c1ncc(CCc3ccc(C(C)N4CCN(C)CC4)cc3)cc12` (centres unmarked) [Example 188, 8-methyl-2-(4-(1-(4-methylpiperazin-1-yl)ethyl)phenethyl)benzo[f][1,7]naphthyridin-5-amine] the EC50 was > 100 µM. `Cc1ccc2c(c1)nc(N)c1ncc(CCc3ccc(CN4CCCC4)cc3)cc12` [Example 177, 8-methyl-2-(4-(pyrrolidin-1-ylmethyl)phenethyl)benzo[f][1,7]naphthyridin-5-amine] gave an EC50 of 15 µM. Compound `Cc1ccc2c(c1)nc(N)c1ncc(CCc3ccc(C(C)N4CCC(O)C4)cc3)cc12` (centres unmarked) [Example 195, 1-(1-(4-(2-(5-amino-8-methylbenzo[f][1,7]naphthyridin-2yl)ethyl)phenyl)ethyl)pyrrolidin-3-ol] has an EC50 of 5.3 µM. With `CCN(CC)CCNC(C)c1ccc(CCc2cnc3c(N)nc4cc(C)ccc4c3c2)cc1` (centres unmarked) [Example 191, N^1-(1-(4-(2-(5-amino-8-methylbenzo[f][1,7]naphthyridin-2-yl)ethyl)phenyl)ethyl)-N^2,N^2-diethylethane-1,2-diamine] the EC50 was 6 µM. `Cc1ccc2c(c1)nc(N)c1ncc(CCc3ccc(C(C)NCCN(C)C)cc3)cc12` (centres unmarked) [Example 186, N^1-(1-(4-(2-(5-amino-8-methylbenzo[f][1,7]naphthyridin-2-yl)ethyl)phenyl)ethyl)-N^2,N^2-dimethylethane-1,2-diamine] gave an EC50 of 11 µM. In the case of `Cc1ccc2c(c1)nc(N)c1ncc(CCc3ccc(C(C)NCCC(=O)O)cc3)cc12` (centres unmarked) [Example 187, 3-(1-(4-(2-(5-amino-8-methylbenzo[f][1,7]naphthyridin-2-yl)ethyl)phenyl)ethylamino)propanoic acid], the EC50 is reported as 82 µM. Compound `Cc1ccc2c(c1)nc(N)c1ncc(CCc3ccc(C(C)N4CCC(C(=O)O)C4)cc3)cc12` (centres unmarked) [Example 193, 1-(1-(4-(2-(5-amino-8-methylbenzo[f][1,7]naphthyridin-2-yl)ethyl)phenyl)ethyl)pyrrolidine-3-carboxylic acid] has an EC50 of 24 µM.
